According to patent US9790229B2, “Bruton's tyrosine kinase inhibitors” (priority 2009, dated 2017):

target: BTK (Homo sapiens (Human), UniProt Q06187); assay: In vitro BTK kinase assay: BTK-POLYGAT-LS ASSAY; conditions: not given
Sequence (Q06187 whole entry): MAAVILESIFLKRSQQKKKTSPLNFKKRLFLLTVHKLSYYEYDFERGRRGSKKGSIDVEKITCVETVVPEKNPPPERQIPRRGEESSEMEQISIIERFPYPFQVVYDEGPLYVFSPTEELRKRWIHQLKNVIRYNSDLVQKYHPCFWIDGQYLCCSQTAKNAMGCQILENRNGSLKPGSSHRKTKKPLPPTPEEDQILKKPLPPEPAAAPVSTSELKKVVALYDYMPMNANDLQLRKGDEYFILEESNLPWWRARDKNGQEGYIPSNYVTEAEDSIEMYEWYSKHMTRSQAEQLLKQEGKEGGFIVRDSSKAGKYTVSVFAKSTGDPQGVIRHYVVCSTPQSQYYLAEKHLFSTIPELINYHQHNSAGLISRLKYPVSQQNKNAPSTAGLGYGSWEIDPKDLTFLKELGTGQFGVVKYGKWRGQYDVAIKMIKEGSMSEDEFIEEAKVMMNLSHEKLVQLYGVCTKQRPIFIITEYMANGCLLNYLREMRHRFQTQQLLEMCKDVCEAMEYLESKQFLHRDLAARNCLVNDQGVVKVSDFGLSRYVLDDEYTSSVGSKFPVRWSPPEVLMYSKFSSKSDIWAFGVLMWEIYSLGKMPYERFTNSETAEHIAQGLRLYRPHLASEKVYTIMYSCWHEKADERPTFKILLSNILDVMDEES

| SMILES | IC50 [nM] |
| --- | --- |
| O=C(COc1ccccc1)Nc1cccc(C2CCCN(c3ncnc4[nH]ccc34)C2)c1 (centres unmarked) [Cmpd 22, N-(3-(1-(7H-pyrrolo[2,3-d]pyrimidin-4-yl)piperidin-3-yl)phenyl)-2-phenoxyacetamide] | 1000 to 10000 |
| CC(C)(C)c1ccccc1NC(=O)Nc1cccc([C@@H]2CCCN(c3ncnc4[nH]ccc34)C2)c1 [compound 189] | 1000 to 10000 |
| CCNc1ncnc(N2CCC[C@@H](N3CCCC(Nc4cc(F)cc(Cl)c4)C3=O)C2)c1F (stereo partly drawn) [compound 287, (3′R)-3-(3-Chloro-5-fluorophenylamino)-1′-(6-(ethylamino)-5-fluoropyrimidin-4-yl)-1,3′-bipiperidin-2-one] | 1000 to 10000 |
| COc1cccc(NC(=O)Nc2cccc(C3CCCN(c4ncnc5[nH]ccc45)C3)c2)c1 (centres unmarked) [compound 187] | 1000 to 10000 |
| CCOC(=O)c1cccc(NC2CCCN([C@@H]3CCCN(c4ncnc(N)c4F)C3)C2=O)c1 (stereo partly drawn) [compound 296, Ethyl 3-((3′R)-1′-(6-amino-5-fluoropyrimidin-4-yl)-2-oxo-1,3′-bipiperidin-3-ylamino) benzoate] | 1000 to 10000 |
| C[C@@H](NC(=O)Nc1cccc(C2CCCN(c3ncnc4[nH]ccc34)C2)c1)c1ccccc1 (stereo partly drawn) [Cmpd 43, 1-(3-(1-(7H-pyrrolo[2,3-d]pyrimidin-4-yl)piperidin-3-yl)phenyl)-3-((R)-1-phenylethyl)urea] | 1000 to 10000 |
| O=C(NCC1CCCCCC1)Nc1cccc(C2CCCN(c3ncnc4[nH]ccc34)C2)c1 (centres unmarked) [compound 217] | 1000 to 10000 |
| O=C(Nc1cccc(C2CCCN(c3ncnc4[nH]ccc34)C2)c1)c1ccc(Cl)cc1 (centres unmarked) [Cmpd 3, N-(3-(1-(7H-pyrrolo[2,3-d]pyrimidin-4-yl)piperidin-3-yl)phenyl)-4-chlorobenzamide] | 1000 to 10000 |
| O=C(Nc1cccc(C2CCCN(c3ncnc4[nH]ccc34)C2)c1)Nc1cccc2cc[nH]c12 (centres unmarked) [compound 211] | 1000 to 10000 |
| O=C(Nc1cccc([C@H]2CN(c3ncnc4[nH]ccc34)CC[C@H]2CO)c1)Nc1ccccc1N1CCCC1 [compound 123, 1-(3-((3S/R)-4-(hydroxymethyl)-1-(7H-pyrrolo[2,3-d]pyrimidin-4-yl)piperidin-3-yl)phenyl)-3-(2-(pyrrolidin-1-yl)phenyl)urea] | 100 to 999 |
| N#CNc1cc(N2CCC[C@@H](N3CCCC(Nc4cc(F)cc(Cl)c4)C3=O)C2)ncn1 (some centres unmarked) [compound 358] | 100 to 999 |
| O=C(Nc1cccc(C2CCCN(c3ncnc4[nH]ccc34)C2)c1)Nc1c(F)cccc1N1CCCC1=O (centres unmarked) [Cmpd 51, 1-(3-(1-(7H-pyrrolo[2,3-d]pyrimidin-4-yl)piperidin-3-yl)phenyl)-3-(2-fluoro-6-(2-oxopyrrolidin-1-yl)phenyl)urea] | 1000 to 10000 |
| N#C/N=C(\Nc1cccc(C2CCCN(c3ncnc4[nH]ccc34)C2)c1)NC1CCCCC1 (centres unmarked) [Cmpd 75] | 1000 to 10000 |
| O=C(Nc1cccc(C2CCCN(c3ncnc4[nH]ccc34)C2)c1)Nc1cccnc1O (centres unmarked) [compound 198] | 1000 to 10000 |
| O=C(Nc1cccc(C2CCCN(c3ncnc4[nH]ccc34)C2)c1)Nc1c(F)cccc1C(F)(F)F (centres unmarked) [compound 194] | 1000 to 10000 |
| O=C(Nc1cccc(C2CCCN(c3ncnc4[nH]ccc34)C2)c1)Nc1ccccc1N1CC[C@@H](F)C1 (some centres unmarked) [compound 162] | 100 to 999 |
| Nc1ncnc(N2CCCC(c3cccc(NC(=O)Nc4ccccc4)c3)C2)c1CCC(=O)O (centres unmarked) [compound 206] | 1000 to 10000 |
| N#Cc1c(N)ncnc1N1CCCC(c2cccc(NC(=O)Nc3ccccc3)c2)C1 (centres unmarked) [Cmpd 102, 1-(3-(1-(6-Amino-5-cyanopyrimidin-4-yl)piperidin-3-yl)phenyl)-3-phenylurea] | 100 to 999 |
| O=C(Nc1cccc(C2CCCN(c3ncnc4[nH]ccc34)C2)c1)c1ccccc1 (centres unmarked) [Cmpd 2, N-(3-(1-(7H-pyrrolo[2,3-d]pyrimidin-4-yl)piperidin-3-yl)phenyl)benzamide] | 1000 to 10000 |
| N#Cc1c(N)ncnc1N1CCCC(c2ccc(OC(F)(F)F)c(NC(=O)C3CCCCC3)c2)C1 (centres unmarked) [compound 144, N-(5-(1-(6-amino-5-cyanopyrimidin-4-yl)piperidin-3-yl)-2-(trifluoromethoxy)phenyl)cyclohexanecarboxamide] | 1000 to 10000 |
| O=C(Nc1cccc(C2CCCN(c3ncnc4[nH]ccc34)C2)c1)Nc1cccnc1Cl (centres unmarked) [compound 202] | 1000 to 10000 |
| O=C(Nc1cccc(C2CCCN(c3ncnc4[nH]ccc34)C2)c1)N1CCCCC1 (centres unmarked) [Cmpd 53, N-(3-(1-(7H-pyrrolo[2,3-d]pyrimidin-4-yl)piperidin-3-yl)phenyl)piperidine-1-carboxamide] | 1000 to 10000 |

same assay, conditions: read-out: IC50 (10 uM ATP); 10 uM ATP; in vitro Btk kinase assay, Example 41

| SMILES | IC50 [nM] |
| --- | --- |
| Nc1ncnc(N2CC[C@@H](C(F)(F)F)[C@H](N3CCC[C@@H](Nc4cc(Cl)cc(Cl)c4)C3=O)C2)c1F [compound 335, trans (3R)-1′-(6-Amino-5-fluoropyrimidin-4-yl)-3-(3,5-dichlorophenylamino)-4′-(trifluoromethyl)-1,3′-bipiperidin-2-one] | < 100 |
| O=c1c(Nc2ccc(Cl)cc2)c(Nc2cccc(C3CCCN(c4ncnc5[nH]ccc45)C3)c2)c1=O (centres unmarked) [Cmpd 70, 3-(3-(1-(7H-pyrrolo[2,3-d]pyrimidin-4-yl)piperidin-3-yl)phenylamino)-4-(4-chlorophenylamino)cyclobut-3-ene-1,2-dione] | > 10000 |
| Cc1ccc(NC(=O)Nc2ccccc2)cc1C1CCCN(c2ncnc3[nH]ccc23)C1 (centres unmarked) [Cmpd 79, 1-(3-(1-(7H-pyrrolo[2,3-d]pyrimidin-4-yl)piperidin-3-yl)-4-methylphenyl)-3-phenylurea] | > 10000 |
| CN(C(=O)Nc1ccccc1)c1cccc(C2CCCN(c3ncnc4[nH]ccc34)C2)c1 (centres unmarked) [compound 136, 1-(3-(1-(7H-Pyrrolo[2,3-d]pyrimidin-4-yl)piperidin-3-yl)phenyl)-1-methyl-3-phenylurea] | > 10000 |
| C[C@@H]1CCCN1c1cccc(F)c1NC(=O)Nc1cccc(C2CCCN(c3ncnc4[nH]ccc34)C2)c1 (stereo partly drawn) [Cmpd 52, 1-(3-(1-(7H-pyrrolo[2,3-d]pyrimidin-4-yl)piperidin-3-yl)phenyl)-3-(2-fluoro-6-((R)-2-methylpyrrolidin-1-yl)phenyl)urea] | < 100 |
| Nc1ncnc(N2CCC[C@@H](N3CCCC(Nc4cc(F)cc(Cl)c4)C3=O)C2)c1F (stereo in doubt) [compound 313, (3R,3′R)-1′-(6-Amino-5-fluoropyrimidin-4-yl)-3-(3-chloro-5-fluorophenylamino)-1,3′-bipiperidin-2-one] | < 100 |
| Cn1ccc2c(N3CCCC(c4cccc(NC(=O)Nc5ccccc5)c4)C3)ncnc21 (centres unmarked) [Cmpd 93, 1-(3-(1-(7-methyl-7H-pyrrolo[2,3-d]pyrimidin-4-yl)piperidin-3-yl)phenyl)-3-phenylurea] | > 10000 |
| Nc1ncnc(N2CCC[C@@H](N3CCCC(Nc4cccc(C(=O)O)c4)C3=O)C2)c1F (stereo partly drawn) [compound 299, 3-((3′R)-1′-(6-Amino-5-fluoropyrimidin-4-yl)-2-oxo-1,3′-bipiperidin-3-ylamino)benzoic acid] | > 10000 |
| O=C1C(NC2CCCC2)CCCN1[C@@H]1CCCN(c2ncnc3[nH]ccc23)C1 (stereo partly drawn) [compound 303, (3′R)-3-(Cyclopentylamino)-1′-(7H-pyrrolo[2,3-d]pyrimidin-4-yl)-1,3′-bipiperidin-2-one] | > 10000 |
| O=C(Nc1cccc(C2CCCN(c3ncnc4[nH]ccc34)C2)c1)Nc1ccncc1Cl (centres unmarked) [compound 222] | > 10000 |
| O=C1C(Nc2cc(Cl)cc(C(F)(F)F)c2)CCCN1[C@@H]1CCCN(c2ncnc3[nH]ccc23)C1 (stereo partly drawn) [compound 300, (3′R)-3-(3-Chloro-5-(trifluoromethyl)phenylamino)-1′-(7H-pyrrolo[2,3-d]pyrimidin-4-yl)-1,3′-bipiperidin-2-one] | < 100 |
| Nc1ncnc(N2CCC[C@@H](N3CCCC(Nc4ccc(C(=O)O)cc4)C3=O)C2)c1F (stereo partly drawn) [compound 298, 4-((3′R)-1′-(6-Amino-5-fluoropyrimidin-4-yl)-2-oxo-1,3′-bipiperidin-3-ylamino)benzoic acid] | > 10000 |
| CC(C)(C)N/C(=N/C#N)Nc1cccc(C2CCCN(c3ncnc4[nH]ccc34)C2)c1 (centres unmarked) [Cmpd 78, (Z)-1-(3-(1-(7H-pyrrolo[2,3-d]pyrimidin-4-yl)piperidin-3-yl)phenyl)-3-tert-butyl-2-cyanoguanidine] | > 10000 |
| Nc1ncnc(N2C[C@@H](F)C[C@@H](N3CCCC(Nc4cc(Cl)cc(Cl)c4)C3=O)C2)c1F (stereo partly drawn) [compound 280, (3′R,5′S)-1′-(6-Amino-5-fluoropyrimidin-4-yl)-3-(3,5-dichlorophenylamino)-5′-fluoro-1,3′-bipiperidin-2-one] | < 100 |
| O=C(Cc1ccccc1)Nc1cccc(C2CCCN(c3ncnc4[nH]ccc34)C2)c1 (centres unmarked) [Cmpd 9, N-(3-(1-(7H-pyrrolo[2,3-d]pyrimidin-4-yl)piperidin-3-yl)phenyl)-2-phenylacetamide] | > 10000 |
| N[C@@H](C(=O)Nc1cccc(C2CCCN(c3ncnc4[nH]ccc34)C2)c1)c1ccccc1 (stereo partly drawn) [Cmpd 21, (2R)—N-(3-(1-(7H-pyrrolo[2,3-d]pyrimidin-4-yl)piperidin-3-yl)phenyl)-2-amino-2-phenylacetamide] | > 10000 |
| O=C(NCCC1CCCCC1)Nc1cccc(C2CCCN(c3ncnc4[nH]ccc34)C2)c1 (centres unmarked) [compound 259] | > 10000 |
| N#Cc1cnc2[nH]ccc2c1N1CCC[C@@H](N2CCCC(Nc3cc(F)cc(Cl)c3)C2=O)C1 (stereo partly drawn) [compound 285, 4-((3′R)-3-(3-Chloro-5-fluorophenylamino)-2-oxo-1,3′-bipiperidin-1′-yl)-1H-pyrrolo[2,3-b]pyridine-5-carbonitrile] | < 100 |
| CN/C(=N/C#N)Nc1cccc(C2CCCN(c3ncnc4[nH]ccc34)C2)c1 (centres unmarked) [Cmpd 77, (E)-1-(3-(1-(7H-pyrrolo[2,3-d]pyrimidin-4-yl)piperidin-3-yl)phenyl)-2-cyano-3-methylguanidine] | > 10000 |
| O=C(Nc1ccccc1)Nc1cc(C2CCCN(c3ncnc4[nH]ccc34)C2)ccc1OC(F)(F)F (centres unmarked) [compound 267] | > 10000 |
| O=C1[C@H](Nc2cc(Cl)cc(Cl)c2)CCN1[C@H]1CN(c2ncnc3[nH]ccc23)CC[C@@H]1C(F)(F)F [compound 322] | < 100 |
| Nc1ncnc(N2CCC[C@@H](N3CCCC(Nc4cc(F)cc(Cl)c4)C3=O)C2)c1F (stereo partly drawn) [compound 277, (3′R)-1′-(6-amino-5-fluoropyrimidin-4-yl)-3-(3-chloro-5-fluorophenylamino)-1,3′-bipiperidin-2-one] | < 100 |
